ChEMBL document CHEMBL4482311, “Modulators of Prostate-Specific G-Protein Receptor (PSGR/OR51E2) and Methods of Using Same” (2018)
One block for each molecule: values may come before it. Active and inactive are the calls of the source. The calls are words filed in the database; no cut-off is given here.

What was measured:
[1] = system: LNCaP; experiment: Growth inhibition of human LNCAP cells incubated for 7 days by CellTiter-Glo assay; assay type: functional, cell-based
[2] = target: T1, Olfactory receptor 51E2 (Homo sapiens) (UniProt Q9H255); experiment: Agonist activity at PSGR/OR51E2 in human LNCaP cells assessed as induction of change in intracellular metabolites level by measuring guanine level at 1 mM incubated for 72 hrs by GC/MS analysis; assay type: cell-based
T1 sequence (whole entry): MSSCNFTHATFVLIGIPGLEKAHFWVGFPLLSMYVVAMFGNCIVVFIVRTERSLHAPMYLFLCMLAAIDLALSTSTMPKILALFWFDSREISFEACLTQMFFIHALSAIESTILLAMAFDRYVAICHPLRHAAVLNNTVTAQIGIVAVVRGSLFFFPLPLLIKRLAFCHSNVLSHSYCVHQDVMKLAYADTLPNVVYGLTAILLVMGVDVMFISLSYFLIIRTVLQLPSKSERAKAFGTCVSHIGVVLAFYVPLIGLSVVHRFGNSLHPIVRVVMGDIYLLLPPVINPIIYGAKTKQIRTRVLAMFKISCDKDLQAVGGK

[3] = target: T1, Olfactory receptor 51E2 (Homo sapiens); experiment: Agonist activity at PSGR/OR51E2 in human LNCaP cells assessed as induction of change in extracellular metabolites level by measuring spermine level at 1 mM incubated for 72 hrs by GC/MS analysis; assay type: cell-based
[4] = target: T1, Olfactory receptor 51E2 (Homo sapiens); experiment: Agonist activity at PSGR/OR51E2 in human LNCaP cells assessed as induction of change in intracellular metabolites level by measuring dehydro-alanine level at 1 mM incubated for 72 hrs by GC/MS analysis; assay type: cell-based
[5] = target: T1, Olfactory receptor 51E2 (Homo sapiens); experiment: Agonist activity at PSGR/OR51E2 in human LNCaP cells assessed as induction of change in extracellular metabolites level by measuring glutamine level at 1 mM incubated for 72 hrs by GC/MS analysis; assay type: cell-based
[6] = target: T1, Olfactory receptor 51E2 (Homo sapiens); experiment: Agonist activity at PSGR/OR51E2 in human LNCaP cells assessed as induction of change in intracellular metabolites level by measuring threitol/erythritol level at 1 mM incubated for 72 hrs by GC/MS analysis; assay type: cell-based
[7] = target: T1, Olfactory receptor 51E2 (Homo sapiens); experiment: Agonist activity at PSGR/OR51E2 in human LNCaP cells assessed as induction of change in extracellular metabolites level by measuring glycine level at 1 mM incubated for 72 hrs by GC/MS analysis; assay type: cell-based
[8] = target: T1, Olfactory receptor 51E2 (Homo sapiens); experiment: Agonist activity at PSGR/OR51E2 in human LNCaP cells assessed as induction of change in extracellular metabolites level by measuring tyramine level at 1 mM incubated for 72 hrs by GC/MS analysis; assay type: cell-based
[9] = target: T1, Olfactory receptor 51E2 (Homo sapiens); experiment: Agonist activity at PSGR/OR51E2 in human LNCaP cells assessed as induction of change in extracellular metabolites level by measuring spermidine level at 1 mM incubated for 72 hrs by GC/MS analysis; assay type: cell-based
[10] = target: T1, Olfactory receptor 51E2 (Homo sapiens); experiment: Agonist activity at PSGR/OR51E2 in human LNCaP cells assessed as induction of change in extracellular metabolites level by measuring threonine level at 1 mM incubated for 72 hrs by GC/MS analysis; assay type: cell-based
[11] = target: T1, Olfactory receptor 51E2 (Homo sapiens); experiment: Agonist activity at PSGR/OR51E2 in human LNCaP cells assessed as induction of change in extracellular metabolites level by measuring lactic acid level at 1 mM incubated for 72 hrs by GC/MS analysis; assay type: cell-based
[12] = target: T1, Olfactory receptor 51E2 (Homo sapiens); experiment: Agonist activity at PSGR/OR51E2 in human LNCaP cells assessed as induction of change in extracellular metabolites level by measuring lactose level at 1 mM incubated for 72 hrs by GC/MS analysis; assay type: cell-based
[13] = target: T1, Olfactory receptor 51E2 (Homo sapiens); experiment: Agonist activity at PSGR/OR51E2 in human LNCaP cells assessed as induction of change in extracellular metabolites level by measuring dehydro-alanine level at 1 mM incubated for 72 hrs by GC/MS analysis; assay type: cell-based
[14] = target: T1, Olfactory receptor 51E2 (Homo sapiens); experiment: Agonist activity at PSGR/OR51E2 in human LNCaP cells assessed as induction of change in intracellular metabolites level by measuring glutamine level at 1 mM incubated for 72 hrs by GC/MS analysis; assay type: cell-based
[15] = target: T1, Olfactory receptor 51E2 (Homo sapiens); experiment: Agonist activity at PSGR/OR51E2 in human LNCaP cells assessed as induction of change in intracellular metabolites level by measuring serine level at 1 mM incubated for 72 hrs by GC/MS analysis; assay type: cell-based
[16] = target: T1, Olfactory receptor 51E2 (Homo sapiens); experiment: Agonist activity at PSGR/OR51E2 in human LNCaP cells assessed as induction of change in intracellular metabolites level by measuring ornithine level at 1 mM incubated for 72 hrs by GC/MS analysis; assay type: cell-based
[17] = target: T1, Olfactory receptor 51E2 (Homo sapiens); experiment: Agonist activity at PSGR/OR51E2 in human LNCaP cells assessed as induction of change in intracellular metabolites level by measuring spermidine level at 1 mM incubated for 72 hrs by GC/MS analysis; assay type: cell-based
[18] = target: T1, Olfactory receptor 51E2 (Homo sapiens); experiment: Agonist activity at PSGR/OR51E2 in human LNCaP cells assessed as induction of change in extracellular metabolites level by measuring threitol/erythritol level at 1 mM incubated for 72 hrs by GC/MS analysis; assay type: cell-based
[19] = target: T1, Olfactory receptor 51E2 (Homo sapiens); experiment: Agonist activity at PSGR/OR51E2 in human LNCaP cells assessed as induction of change in extracellular metabolites level by measuring glutamic acid level at 1 mM incubated for 72 hrs by GC/MS analysis; assay type: cell-based
[20] = target: T1, Olfactory receptor 51E2 (Homo sapiens); experiment: Agonist activity at PSGR/OR51E2 in human LNCaP cells assessed as induction of change in extracellular metabolites level by measuring serine level at 1 mM incubated for 72 hrs by GC/MS analysis; assay type: cell-based
[21] = target: T1, Olfactory receptor 51E2 (Homo sapiens); experiment: Agonist activity at PSGR/OR51E2 in human LNCaP cells assessed as induction of change in intracellular metabolites level by measuring lactic acid level at 1 mM incubated for 72 hrs by GC/MS analysis; assay type: cell-based
[22] = target: T1, Olfactory receptor 51E2 (Homo sapiens); experiment: Agonist activity at PSGR/OR51E2 in human LNCaP cells assessed as induction of change in intracellular metabolites level by measuring glycine level at 1 mM incubated for 72 hrs by GC/MS analysis; assay type: cell-based
[23] = target: T1, Olfactory receptor 51E2 (Homo sapiens); experiment: Agonist activity at PSGR/OR51E2 in human LNCaP cells assessed as induction of change in intracellular metabolites level by measuring lactose level at 1 mM incubated for 72 hrs by GC/MS analysis; assay type: cell-based
[24] = target: T1, Olfactory receptor 51E2 (Homo sapiens); experiment: Agonist activity at PSGR/OR51E2 in human LNCaP cells assessed as induction of change in intracellular metabolites level by measuring tyramine level at 1 mM incubated for 72 hrs by GC/MS analysis; assay type: cell-based
[25] = target: T1, Olfactory receptor 51E2 (Homo sapiens); experiment: Agonist activity at PSGR/OR51E2 in human LNCaP cells assessed as induction of change in extracellular metabolites level by measuring guanine level at 1 mM incubated for 72 hrs by GC/MS analysis; assay type: cell-based
[26] = target: T1, Olfactory receptor 51E2 (Homo sapiens); experiment: Agonist activity at PSGR/OR51E2 in human LNCaP cells assessed as induction of change in extracellular metabolites level by measuring ornithine level at 1 mM incubated for 72 hrs by GC/MS analysis; assay type: cell-based
[27] = target: T1, Olfactory receptor 51E2 (Homo sapiens); experiment: Agonist activity at PSGR/OR51E2 in human LNCaP cells assessed as induction of change in intracellular metabolites level by measuring threonine level at 1 mM incubated for 72 hrs by GC/MS analysis; assay type: cell-based
[28] = target: T1, Olfactory receptor 51E2 (Homo sapiens); experiment: Agonist activity at PSGR/OR51E2 in human LNCaP cells assessed as induction of change in intracellular metabolites level by measuring aspartic acid level at 1 mM incubated for 72 hrs by GC/MS analysis; assay type: cell-based
[29] = target: T1, Olfactory receptor 51E2 (Homo sapiens); experiment: Agonist activity at PSGR/OR51E2 in human LNCaP cells assessed as induction of change in intracellular metabolites level by measuring spermine level at 1 mM incubated for 72 hrs by GC/MS analysis; assay type: cell-based
[30] = target: T1, Olfactory receptor 51E2 (Homo sapiens); experiment: Agonist activity at PSGR/OR51E2 in human LNCaP cells assessed as induction of change in intracellular metabolites level by measuring glutamic acid level at 1 mM incubated for 72 hrs by GC/MS analysis; assay type: cell-based
[31] = target: T1, Olfactory receptor 51E2 (Homo sapiens); experiment: Agonist activity at PSGR/OR51E2 in human LNCaP cells assessed as induction of change in extracellular metabolites level by measuring aspartic acid level at 1 mM incubated for 72 hrs by GC/MS analysis; assay type: cell-based

SMILES: CC1=C(/C=C/C(C)=C/C=C/C(C)=C\C(=O)O)C(C)(C)CCC1
growth inhibition (GI) [1]: Active

Activity [2]: Active
Activity [3]: Active
Activity [4]: Active
Activity [5]: Active
Activity [6]: Active
Activity [7]: Active
Activity [8]: Active
Activity [9]: Active
Activity [10]: Active
Activity [11]: Active
Activity [12]: Active
Activity [13]: Active
Activity [14]: Active
Activity [15]: Active
Activity [16]: Active
Activity [17]: Active
Activity [18]: Active
Activity [19]: Active
Activity [20]: Active
Activity [21]: Active
Activity [22]: Active
Activity [23]: Active
Activity [24]: Active
Activity [25]: Active
Activity [26]: Active
Activity [27]: Active
Activity [28]: Active
Activity [29]: Active
Activity [30]: Active
Activity [31]: Active
SMILES: CCC(=O)O
